In one experiment the test system is NXS2 cells. The experiment can be described thus: syngeneic model of NXS2 NB liver metastasis in A/J mice, liver weight. The format is in vivo, mouse. How it is done: Depletion of macrophages in 8-week-old A/J mice was performed clodronate liposomes or liposomes obtained from Liposoma (Liposoma BV, Amsterdam, the Netherlands) according to the manufacturer's instructions. Mice were given either clodronate liposomes or liposome i.p. 4 days before tumor cell injection and thereafter on days 0, 3, 7, 10, 14, 17, and 21 post-tumor cell inoculation. The effectiveness of macrophage depletion was determined by flow cytometry analysis of CD45+F4/80+CD11b+Ly6G-Ly6Clow-int cells among splenocytes from the treated animals.
NXS2 Cells (2.5×10^5 in 100 μL of PBS) were transplanted into syngeneic 8-weeks old female A/J mice (Harlan Laboratories, Gannat, France) i.v., to induces liver metastasis 6. Mice received either mAb 8B6 (25 μg, i.v.) or mAb P84 (200 μg, i.p.) twice a week for 3 consecutive weeks beginning 3 days after tumor cell injection. Isotretinoin was given orally diluted in Ora-Plus® at 10 mg/kg daily for 5 consecutive days, starting week 3 after tumor cell challenge. Mice were euthanized on day 27 post-tumor challenge. Anti-tumor efficacy was evaluated by liver weight of the fresh specimen as described previously 6.

For experiment [1], the system named is CD47. Kind of experiment: CD47 cell-surface expression in human NB cell lines in vitro, flow cytometry. Format: cell-based. The following applies: human NB cell lines IMR5, LAN1; 72 hours incubation; FIG. 2A-C. The method, then:
(§1) FIG. 2. Both O-acetyl GD2-specific monoclonal antibody 8B6 and 13-cis-RA exposures induce CD47 phagocytosis checkpoint up-regulation in NB cells in vitro. The NB cells IMR5, LAN1 and NXS2 were respectively incubated for 72 hours with (A) 13-cis-RA, (B) mAb 8B6, and (C) 13-cis-RA plus mAb 8B6, as indicated. After incubation, CD47 cell surface expression was analyzed by flow cytometry analysis. […] Data are presented as the mean±SEM ([…]; **p<0.01; ***p<0.001; Mann-Whitney test).
(§2) We next interrogate the impact of mAb 8B6, used alone or in combination with 13-cis-RA, on CD47 cell-surface expression in human NB cell line. After 72 hours incubation, cells were harvested, stained with a CD47-specific mAb and then subjected to flow cytometry analysis. […] The tested treatments had little impact on CD47 NXS2 cell-surface expression (FIG. 2A-C).

Experiment [2] relates to CD47. The experiment can be described thus: CD47 cell-surface expression in NXS2 cells in vitro, flow cytometry. Format: cell-based, mouse. The following applies: 72 hours incubation, FIG. 2A-C. How it is done:
as §1, §2
For orientation: Flow cytometry measures light scatter and fluorescence of single cells or particles in a stream.

Each structure is given as a SMILES string. Entries after “also recorded” stand apart in the source; their conditions may differ.

As to `CC1=C(/C=C/C(C)=C/C=C/C(C)=C\C(=O)O)C(C)(C)CCC1` [13-cis-RA, 13-cis-retinoic acid], the liver weight worked out at 1.19 ± 0.0 g with NXS2 cells (FIG. 1B, day 27 after i.v. NXS2 inoculation, 8 mice/group, 8B6 i.v. days 3,7,10,14,17,21, 13-cis-RA 10 mg/kg per os) and 1.95 ± 0.12 g in the experiment on NXS2 cells (FIG. 4B, day 27, 8B6 25 μg i.v., P84 i.p. days 3,7,10,14,17,21, 13-cis-RA 10 mg/kg per os days 17-21). The figures for the CD47 cell-surface expression entry with CD47 [1] and in the experiment on CD47 [2] were “induces up-regulation of CD47; also recorded: induced CD47 up-regulation” and “induces up-regulation of CD47”, respectively.

The values above are taken from patent US20240190993A1, “NEW METHOD TO IMPROVE THE ANTI-TUMORAL ACTIVITY OF MACROPHAGES” (INSERM (INSTITUT NATIONAL DE LA SANTÉ ET DE LA RECHERCHE …, priority 2021, published 2024).
